Laboratory results: publication PMC7265341, “Quantifying CDK inhibitor selectivity in live cells” (Nature Communications, 2020)
Where two headings read alike, the source gives them in different places.

Experiments:
[1] = biological target: CDK10/Cyclin L2 (Homo sapiens, UniProt Q15131); test: NanoBRET live-cell target engagement, CDK10-NanoLuc/Cyclin L2 in HEK-293; settings: read-out: Inhibition at 10µM (%), CDK10/L2
[2] = biological target: CDK1/Cyclin E1 (Homo sapiens, UniProt P06493); test: NanoBRET live-cell target engagement, CDK1-NanoLuc/Cyclin E1 in HEK-293; format: binding; settings: CDK1/E1, read-out: Inhibition at 10µM (%)
[3] = biological target: CDK7 (Homo sapiens, UniProt P50613); test: NanoBRET live-cell target engagement, NanoLuc-CDK7 in HEK-293; format: binding; settings: CDK7, read-out: Inhibition at 10µM (%)
Chain of CDK7 (P50613 whole entry): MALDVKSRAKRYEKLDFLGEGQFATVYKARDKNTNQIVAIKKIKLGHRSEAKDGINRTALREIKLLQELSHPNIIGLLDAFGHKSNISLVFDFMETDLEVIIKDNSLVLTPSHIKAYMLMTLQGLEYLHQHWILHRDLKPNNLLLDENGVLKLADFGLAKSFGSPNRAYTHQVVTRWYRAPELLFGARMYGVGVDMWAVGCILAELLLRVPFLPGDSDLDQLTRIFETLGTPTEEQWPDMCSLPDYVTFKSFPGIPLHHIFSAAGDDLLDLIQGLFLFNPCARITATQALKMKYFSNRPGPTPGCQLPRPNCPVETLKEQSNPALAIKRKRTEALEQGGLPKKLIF

[4] = biological target: CDK20/Cyclin H (Homo sapiens, UniProt Q8IZL9); test: NanoBRET live-cell target engagement, NanoLuc-CDK20/Cyclin H in HEK-293; format: binding; settings: CDK20/H, read-out: Inhibition at 10µM (%)
[5] = biological target: CDK2/Cyclin E1 (Homo sapiens, UniProt P24941); test: NanoBRET live-cell target engagement, CDK2-NanoLuc/Cyclin E1 in HEK-293; format: binding; settings: CDK2/E1, read-out: Inhibition at 10µM (%)
[6] = biological target: CDK11B/Cyclin L2 (Homo sapiens, UniProt P21127); test: NanoBRET live-cell target engagement, CDK11B-NanoLuc/Cyclin L2 in HEK-293; format: binding; settings: CDK11b/L2, read-out: Inhibition at 10µM (%)
[7] = biological target: CDK13/Cyclin K (Homo sapiens, UniProt Q14004); test: NanoBRET live-cell target engagement, CDK13-NanoLuc/Cyclin K in HEK-293; format: binding; settings: for inhibition at 10 µM: CDK13/K, read-out: Inhibition at 10µM (%)
Chain of CDK13/Cyclin K (O75909 whole entry): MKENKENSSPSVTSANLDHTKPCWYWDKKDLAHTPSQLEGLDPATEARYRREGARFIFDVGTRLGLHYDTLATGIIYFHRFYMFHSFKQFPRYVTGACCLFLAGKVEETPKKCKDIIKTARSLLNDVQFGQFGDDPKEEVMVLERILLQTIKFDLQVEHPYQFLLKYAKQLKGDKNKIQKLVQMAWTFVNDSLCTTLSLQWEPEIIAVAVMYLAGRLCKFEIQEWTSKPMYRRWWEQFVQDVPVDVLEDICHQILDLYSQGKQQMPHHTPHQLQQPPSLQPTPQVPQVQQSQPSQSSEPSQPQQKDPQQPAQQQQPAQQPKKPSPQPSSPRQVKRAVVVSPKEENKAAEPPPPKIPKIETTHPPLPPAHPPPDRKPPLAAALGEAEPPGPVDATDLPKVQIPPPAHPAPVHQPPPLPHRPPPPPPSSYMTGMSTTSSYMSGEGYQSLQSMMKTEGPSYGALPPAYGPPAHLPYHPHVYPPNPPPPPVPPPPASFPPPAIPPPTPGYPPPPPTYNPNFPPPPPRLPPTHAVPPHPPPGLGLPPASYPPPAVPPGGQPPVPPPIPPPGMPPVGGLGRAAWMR
Chain of CDK13/Cyclin K (Q14004 other isoform, or with tags, fused parts or gaps): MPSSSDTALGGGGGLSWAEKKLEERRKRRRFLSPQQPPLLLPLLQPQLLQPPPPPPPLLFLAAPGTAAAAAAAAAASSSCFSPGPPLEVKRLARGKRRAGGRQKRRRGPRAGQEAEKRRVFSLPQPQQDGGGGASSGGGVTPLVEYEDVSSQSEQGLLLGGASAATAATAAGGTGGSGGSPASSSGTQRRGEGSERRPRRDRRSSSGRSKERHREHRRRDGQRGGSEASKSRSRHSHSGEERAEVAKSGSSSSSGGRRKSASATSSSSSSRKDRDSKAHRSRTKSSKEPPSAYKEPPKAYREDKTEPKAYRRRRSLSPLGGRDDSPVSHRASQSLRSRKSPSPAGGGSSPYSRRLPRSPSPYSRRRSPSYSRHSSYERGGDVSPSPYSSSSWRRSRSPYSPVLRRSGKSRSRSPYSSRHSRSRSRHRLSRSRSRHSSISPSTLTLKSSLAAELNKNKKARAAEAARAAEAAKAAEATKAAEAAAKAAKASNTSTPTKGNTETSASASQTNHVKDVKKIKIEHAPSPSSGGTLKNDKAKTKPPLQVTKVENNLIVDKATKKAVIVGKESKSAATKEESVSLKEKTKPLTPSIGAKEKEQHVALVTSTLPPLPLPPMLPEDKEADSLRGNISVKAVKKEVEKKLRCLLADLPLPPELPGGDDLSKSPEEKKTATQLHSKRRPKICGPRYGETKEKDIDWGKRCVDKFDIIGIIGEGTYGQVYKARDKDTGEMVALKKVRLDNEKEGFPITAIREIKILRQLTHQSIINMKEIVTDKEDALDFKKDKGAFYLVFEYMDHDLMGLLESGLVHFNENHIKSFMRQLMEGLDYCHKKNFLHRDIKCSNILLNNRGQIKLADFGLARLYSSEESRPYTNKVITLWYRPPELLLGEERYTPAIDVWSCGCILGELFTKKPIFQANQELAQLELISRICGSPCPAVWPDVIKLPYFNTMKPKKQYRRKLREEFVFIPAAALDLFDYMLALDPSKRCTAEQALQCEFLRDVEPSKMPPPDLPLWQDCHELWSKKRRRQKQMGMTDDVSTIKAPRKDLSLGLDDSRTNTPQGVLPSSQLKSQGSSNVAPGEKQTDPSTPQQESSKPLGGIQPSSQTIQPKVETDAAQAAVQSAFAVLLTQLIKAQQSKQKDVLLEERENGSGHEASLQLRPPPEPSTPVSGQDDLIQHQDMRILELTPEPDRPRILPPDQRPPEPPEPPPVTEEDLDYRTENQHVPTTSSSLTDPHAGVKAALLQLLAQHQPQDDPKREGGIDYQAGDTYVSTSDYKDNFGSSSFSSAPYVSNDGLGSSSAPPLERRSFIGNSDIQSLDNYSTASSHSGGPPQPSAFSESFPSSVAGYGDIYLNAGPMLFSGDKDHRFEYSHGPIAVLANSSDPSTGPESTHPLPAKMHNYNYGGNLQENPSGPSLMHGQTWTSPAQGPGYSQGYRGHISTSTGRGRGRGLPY

[8] = biological target: CDK4/Cyclin D1 (Homo sapiens, UniProt P11802); test: NanoBRET live-cell target engagement, NanoLuc-CDK4/Cyclin D1 in HEK-293; format: binding; settings: CDK4/D1, read-out: Inhibition at 10µM (%)
[9] = biological target: T1, CDK11A/Cyclin L2 (Homo sapiens, UniProt Q9UQ88); test: NanoBRET live-cell target engagement, CDK11A-NanoLuc/Cyclin L2 in HEK-293; format: binding; settings: CDK11a/L2, read-out: Inhibition at 10µM (%)
T1 sequence (Q9UQ88 1-783): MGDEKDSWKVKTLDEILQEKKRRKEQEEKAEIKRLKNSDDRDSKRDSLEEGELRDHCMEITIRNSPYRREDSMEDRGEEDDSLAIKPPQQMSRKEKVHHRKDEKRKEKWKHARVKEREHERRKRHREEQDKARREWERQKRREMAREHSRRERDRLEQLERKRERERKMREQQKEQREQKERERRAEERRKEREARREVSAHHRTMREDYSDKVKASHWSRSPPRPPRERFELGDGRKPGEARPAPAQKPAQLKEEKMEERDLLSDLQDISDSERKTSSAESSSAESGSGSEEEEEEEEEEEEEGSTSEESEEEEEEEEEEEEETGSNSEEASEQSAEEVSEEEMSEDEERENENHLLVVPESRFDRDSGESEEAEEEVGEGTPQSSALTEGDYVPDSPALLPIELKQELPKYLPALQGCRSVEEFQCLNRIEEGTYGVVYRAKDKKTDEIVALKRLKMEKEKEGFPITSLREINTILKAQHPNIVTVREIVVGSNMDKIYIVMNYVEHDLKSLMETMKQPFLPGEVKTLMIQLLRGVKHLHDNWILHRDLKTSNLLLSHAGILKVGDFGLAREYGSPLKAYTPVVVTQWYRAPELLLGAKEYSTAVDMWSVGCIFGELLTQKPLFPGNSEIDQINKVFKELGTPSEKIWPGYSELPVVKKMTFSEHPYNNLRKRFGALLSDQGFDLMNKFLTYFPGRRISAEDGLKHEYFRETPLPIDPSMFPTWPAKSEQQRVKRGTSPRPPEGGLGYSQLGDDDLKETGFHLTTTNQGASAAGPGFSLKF

[10] = biological target: CDK5/CDK5R1 (Homo sapiens, UniProt Q00535); test: NanoBRET live-cell target engagement, CDK5-NanoLuc/CDK5R1 in HEK-293; format: binding; settings: CDK5/CDK5R1, read-out: Inhibition at 10µM (%)
[11] = biological target: CDK6/Cyclin D1 (Homo sapiens, UniProt Q00534); test: NanoBRET live-cell target engagement, NanoLuc-CDK6/Cyclin D1 in HEK-293; format: binding; settings: CDK6/D1, read-out: Inhibition at 10µM (%)
Chain of CDK6/Cyclin D1 (Q00534 whole entry): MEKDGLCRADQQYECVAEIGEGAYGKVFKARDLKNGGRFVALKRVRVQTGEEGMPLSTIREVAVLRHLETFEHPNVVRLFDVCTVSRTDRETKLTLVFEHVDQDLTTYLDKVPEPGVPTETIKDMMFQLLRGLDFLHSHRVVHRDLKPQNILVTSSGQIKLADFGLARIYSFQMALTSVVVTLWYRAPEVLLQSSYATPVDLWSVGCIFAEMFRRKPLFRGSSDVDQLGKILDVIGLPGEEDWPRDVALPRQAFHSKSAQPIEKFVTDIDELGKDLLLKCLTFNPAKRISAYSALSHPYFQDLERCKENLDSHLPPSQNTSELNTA
Chain of CDK6/Cyclin D1 (P24385 whole entry partner): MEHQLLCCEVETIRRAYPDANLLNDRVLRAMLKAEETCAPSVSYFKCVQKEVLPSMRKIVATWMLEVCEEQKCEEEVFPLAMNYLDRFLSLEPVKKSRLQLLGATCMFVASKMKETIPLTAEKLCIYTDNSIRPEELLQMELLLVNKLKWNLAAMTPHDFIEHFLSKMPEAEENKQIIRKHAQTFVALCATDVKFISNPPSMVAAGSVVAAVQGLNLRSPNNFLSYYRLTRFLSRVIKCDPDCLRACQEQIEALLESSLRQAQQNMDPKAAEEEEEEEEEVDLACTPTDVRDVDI

[12] = biological target: CDK8/Cyclin C (Homo sapiens, UniProt P49336); test: NanoBRET live-cell target engagement, NanoLuc-CDK8/Cyclin C in HEK-293; format: binding; settings: CDK8/C, read-out: Inhibition at 10µM (%)
Chain of CDK8/Cyclin C (P49336 whole entry): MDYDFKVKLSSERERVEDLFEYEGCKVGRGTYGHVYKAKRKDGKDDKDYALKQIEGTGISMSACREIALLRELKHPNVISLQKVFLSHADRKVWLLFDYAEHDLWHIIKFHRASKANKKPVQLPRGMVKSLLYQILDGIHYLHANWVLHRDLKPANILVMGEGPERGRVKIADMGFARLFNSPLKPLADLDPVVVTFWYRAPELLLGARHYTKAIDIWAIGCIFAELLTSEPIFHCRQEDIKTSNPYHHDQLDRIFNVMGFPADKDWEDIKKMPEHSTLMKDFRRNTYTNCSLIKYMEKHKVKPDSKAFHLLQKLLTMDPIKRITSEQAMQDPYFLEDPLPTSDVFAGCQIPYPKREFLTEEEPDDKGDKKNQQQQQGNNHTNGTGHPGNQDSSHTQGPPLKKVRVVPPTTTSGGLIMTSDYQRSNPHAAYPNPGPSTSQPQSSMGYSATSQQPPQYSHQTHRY
Chain of CDK8/Cyclin C (P24863 whole entry partner): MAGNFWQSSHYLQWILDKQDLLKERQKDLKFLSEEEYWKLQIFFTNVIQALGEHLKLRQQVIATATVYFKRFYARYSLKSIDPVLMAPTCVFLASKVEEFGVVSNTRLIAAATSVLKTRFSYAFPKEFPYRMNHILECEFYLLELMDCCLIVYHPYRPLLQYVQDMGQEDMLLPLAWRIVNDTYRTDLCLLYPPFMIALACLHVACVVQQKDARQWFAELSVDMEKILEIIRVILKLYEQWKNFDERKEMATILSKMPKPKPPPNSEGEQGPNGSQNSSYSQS

[13] = biological target: CDK19/Cyclin C (Homo sapiens, UniProt Q9BWU1); test: NanoBRET live-cell target engagement, NanoLuc-CDK19/Cyclin C in HEK-293; settings: for inhibition at 10 µM: read-out: Inhibition at 10µM (%), CDK19/C
Chain of CDK19/Cyclin C (Q9BWU1 whole entry): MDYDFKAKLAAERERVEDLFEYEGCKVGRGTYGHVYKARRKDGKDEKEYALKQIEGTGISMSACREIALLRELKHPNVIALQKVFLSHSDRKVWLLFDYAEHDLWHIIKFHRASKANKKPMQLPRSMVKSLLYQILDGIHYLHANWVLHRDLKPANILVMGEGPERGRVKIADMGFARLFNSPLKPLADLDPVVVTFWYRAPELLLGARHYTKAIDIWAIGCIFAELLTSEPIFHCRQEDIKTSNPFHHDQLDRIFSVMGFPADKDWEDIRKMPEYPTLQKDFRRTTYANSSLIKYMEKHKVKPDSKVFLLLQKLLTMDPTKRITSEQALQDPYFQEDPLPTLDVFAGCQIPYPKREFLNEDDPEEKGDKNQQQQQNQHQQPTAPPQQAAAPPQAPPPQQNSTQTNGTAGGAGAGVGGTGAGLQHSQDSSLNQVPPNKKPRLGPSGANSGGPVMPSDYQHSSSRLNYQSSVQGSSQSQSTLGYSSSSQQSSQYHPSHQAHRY
Chain of CDK19/Cyclin C (P24863 whole entry partner): as the sequence (P24863 whole entry partner) above

[14] = biological target: CDK9/Cyclin K (Homo sapiens, UniProt P50750); test: NanoBRET live-cell target engagement, NanoLuc-CDK9/Cyclin K in HEK-293; format: binding; settings: CDK9/K, read-out: Inhibition at 10µM (%)

Chain of CDK10/Cyclin L2 (Q15131 whole entry): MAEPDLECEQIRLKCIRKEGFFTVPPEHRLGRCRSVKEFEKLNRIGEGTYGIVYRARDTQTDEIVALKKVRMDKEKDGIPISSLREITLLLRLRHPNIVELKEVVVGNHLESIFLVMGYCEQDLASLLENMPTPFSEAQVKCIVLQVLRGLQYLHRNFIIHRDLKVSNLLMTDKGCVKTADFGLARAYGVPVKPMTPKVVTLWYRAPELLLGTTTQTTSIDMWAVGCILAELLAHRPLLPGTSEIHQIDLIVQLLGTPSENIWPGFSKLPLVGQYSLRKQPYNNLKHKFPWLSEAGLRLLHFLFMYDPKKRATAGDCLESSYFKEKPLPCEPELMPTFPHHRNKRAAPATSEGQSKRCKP

inhibition at 10 µM ([1]; average): 38.5%
inhibition at 10 µM ([1]; experiment 1): 45.2%
inhibition at 10 µM ([1]; experiment 2): 31.9%
inhibition at 10 µM ([2]; average): 72.2%
inhibition at 10 µM ([2]; experiment 1): 65.7%
inhibition at 10 µM ([2]; experiment 2): 78.8%
inhibition at 10 µM ([3]; average): 72.3%
inhibition at 10 µM ([3]; experiment 1): 65.8%
inhibition at 10 µM ([3]; experiment 2): 78.8%
inhibition at 10 µM ([4]; experiment 1): 6.3%
inhibition at 10 µM ([4]; experiment 2): 6.5%
inhibition at 10 µM ([5]; average): 75%
inhibition at 10 µM ([5]; experiment 1): 74.5%
inhibition at 10 µM ([5]; experiment 2): 75.4%
inhibition at 10 µM ([6]; average): 47.4%
inhibition at 10 µM ([6]; experiment 1): 40.9%
inhibition at 10 µM ([6]; experiment 2): 54%
inhibition at 10 µM ([7]; average): 28%
inhibition at 10 µM ([7]; experiment 1): 33.4%
inhibition at 10 µM ([7]; experiment 2): 22.5%
receptor occupancy at 10 µM ([7]; primary screen, live HEK-293): ~50%
inhibition at 10 µM ([8]; average): 90.8%
inhibition at 10 µM ([8]; experiment 1): 88.6%
inhibition at 10 µM ([8]; experiment 2): 93%
inhibition at 10 µM ([9]; average): 27.7%
inhibition at 10 µM ([9]; experiment 1): 30.2%
inhibition at 10 µM ([9]; experiment 2): 25.2%
inhibition at 10 µM ([10]; average): 83.1%
inhibition at 10 µM ([10]; experiment 1): 85%
inhibition at 10 µM ([10]; experiment 2): 81.1%
inhibition at 10 µM ([11]; average): 86.6%
inhibition at 10 µM ([11]; experiment 1): 83.3%
inhibition at 10 µM ([11]; experiment 2): 89.9%
inhibition at 10 µM ([12]; average): 95.7%
inhibition at 10 µM ([12]; experiment 1): 96.6%
inhibition at 10 µM ([12]; experiment 2): 94.9%
IC50 ([13]; IC50 (nM), CDK19/C, experiment 1): 19 nM
IC50 ([13]; IC50 (nM), CDK19/C, experiment 2): 18 nM
IC50 ([13]; IC50 (nM), CDK19/Y (so in the source), average (± SEM where n=3)): 19 nM
IC50 ([13]; IC50 for CDK/cyclin complexes, CDK19/C, live HEK-293, 2 h, mean ± S.E.M. (n=3) or mean (n=2)): 19 nM
inhibition at 10 µM ([13]; average): 95.8%
inhibition at 10 µM ([13]; experiment 1): 98%
inhibition at 10 µM ([13]; experiment 2): 93.5%
inhibition at 10 µM ([14]; average): 97.8%
inhibition at 10 µM ([14]; experiment 1): 97.5%
inhibition at 10 µM ([14]; experiment 2): 98%
Compound: CN1CC[C@H](c2c(O)cc(O)c3c(=O)cc(-c4ccccc4Cl)oc23)[C@H](O)C1 [Flavopiridol]
